The text below walks through data of patent US20200360352A1, “USE OF RIFAMYCIN-NITROIMIDAZOLE COUPLING MOLECULE” (priority 2019, published 2020).

Common to all, as to assay type: cell-based
For experiment [1], the system named is Mycobacterium abscessus. In words: MBC, plating of MIC wells and CFU count. The note with it: Mycobacteroides abscessus, read-out: Minimum Bactericidal Concentration (MBC).
In experiment [2] the test system is Mycobacterium avium. Briefly: MBC, plating of MIC wells and CFU count. The conditions noted are these: read-out: Minimum Bactericidal Concentration (MBC).
Experiment [3] relates to Mycobacterium abscessus. Briefly: MIC, micro broth dilution with resazurin readout. The conditions noted are these: Mycobacteroides abscessus, read-out: Minimum Inhibitory Concentration (MIC). (Dilution methods test growth across graded concentrations, often in twofold steps.)
Experiment [4] has as its system Mycobacterium kansasii. Briefly: MBC, plating of MIC wells and CFU count. The note with it: read-out: Minimum Bactericidal Concentration (MBC).
For experiment [5], the system named is Mycobacterium kansasii. Briefly: MIC, micro broth dilution with resazurin readout. The note with it: read-out: Minimum Inhibitory Concentration (MIC).
The test system of experiment [6] is Mycobacterium avium. Briefly: MIC, micro broth dilution with resazurin readout. The conditions noted are these: read-out: Minimum Inhibitory Concentration (MIC).
Where [7] appears, read: 7H9 Broth, Mycobacterium avium Rough.
[8] abbreviates: 7H9 Broth, Mycobacterium avium Smooth.
[9] abbreviates: MH Broth, Mycobacterium avium Rough.
The mark [10] stands for this setting: MH Broth, Mycobacterium avium Smooth.

Converted amounts (≈) assume the structure as drawn. Where two headings read alike, the source gives them in different places. Some results are limits rather than exact numbers.

As to `NCC[C@H](O)C(=O)N[C@@H]1C[C@H](N)[C@@H](O[C@H]2O[C@H](CN)[C@@H](O)[C@H](O)[C@H]2O)[C@H](O)[C@H]1O[C@H]1O[C@H](CO)[C@@H](O)[C@H](N)[C@H]1O` [Amikacin], the MBC in experiment [1] (7H9 Broth), in experiment [1] (MH Broth), in experiment [2] (setting [7]), in experiment [2] (setting [8]), in experiment [2] (setting [9]) and in experiment [2] (setting [10]) was above 64 µg/mL each time. Also, the MBC in experiment [4] (7H9 Broth) was 64 µg/mL (≈ 109 µM); in experiment [4] (MH Broth) it was above 64 µg/mL. Also, the MIC in experiment [3] (7H9 Broth) was 32 µg/mL (≈ 54.6 µM); in experiment [3] (MH Broth), 16 µg/mL (≈ 27.3 µM); in experiment [5] (7H9 Broth) it was 16 µg/mL (≈ 27.3 µM); in experiment [5] (MH Broth) it was 1 µg/mL (≈ 1.71 µM); in experiment [6] (setting [7]), above 64 µg/mL; in experiment [6] (setting [8]), 2 µg/mL (≈ 3.42 µM). For the same compound, the MIC in experiment [6] (setting [9]) and in experiment [6] (setting [10]) was 2 µg/mL (≈ 3.42 µM) each time.

As for `O=C(O)c1cn(C2CC2)c2cc(N3CCNCC3)c(F)cc2c1=O` [Ciprofloxacin], the MBC in experiment [1] (7H9 Broth), in experiment [1] (MH Broth), in experiment [2] (setting [8]), in experiment [2] (setting [10]), in experiment [4] (7H9 Broth) and in experiment [4] (MH Broth) was above 64 µg/mL each time. The MIC in experiment [3] (7H9 Broth) is 16 µg/mL (≈ 48.3 µM); in experiment [3] (MH Broth) it was above 64 µg/mL; in experiment [5] (7H9 Broth), above 64 µg/mL; in experiment [5] (MH Broth) it was above 64 µg/mL; in experiment [6] (setting [8]), above 64 µg/mL; in experiment [6] (setting [10]), above 64 µg/mL.
